From US9925204B2, “Anti-inflammatory compounds in combination with hydrogen for the treatment of inflammation” (priority 2012, dated 2018)
Read-outs that look alike come from different tables or passages of the source.

Columns and labels:
[1] = tested on: tonic extensor seizures in mice; settings: cited from earlier work; for Effect # Protected/# Tested / Ataxia # Ataxia/# Tested: mice, intravenous, 120 min after dose; for Effect # Protected/# Tested: electroshock
GAD = settings: cited from earlier work
[2] = tested on: mouse foot pad inflammation induced by Freund's complete adjuvant (FCA); test: Freund's complete adjuvant induced foot pad inflammation in mice (Example 1); assay type: in vivo
Description: Mice were placed in the following administration groups, and administration occurred daily:
1) Control (no treatment) (n=4)
2) Placebo (PBS, i.p.) inoculation—(i.e. CFA only) (n=4)
3) H2 enriched PBS inoculation (i.e. CFA+H2) (n=4)
4) Lactulose inoculation at 0.5 mL/mouse (i.e. CFA+Lact) (n=4)
5) LYRICA® (i.e. CFA+Lyr) (n=5)
6) LYRICA®+H2 enriched PBS (i.e. CFA+Lyr+H2) (n=5)
7) LYRICA®+Lactulose in PBS (i.e. CFA+Lact+H2) (n=4)
CFA was injected into the mice in groups 2 through 7 above. Inflammation was induced in the mice by injection of Freund's complete adjuvant (FCA), 25 μL/foot, on day 0 as shown in FIG. 1A. […] These measurements included thickness of foot pad (level of inflammation), amount of H2 in abdominal cavity, amount of nerve growth factor (NGF) (pain marker) in foot pad, amount of Substance P (pain marker) in foot pad, and amount of IL-1β in foot pad (level of inflammation).

[3] = tested on: Freund's complete adjuvant-induced hind paw inflammation in mice; test: Freund's complete adjuvant-induced hind paw inflammation in mice (Example 4); assay type: in vivo, mice (BALB/c); settings: day 7, versus mice without lactulose
Description: The following experiment was performed to test the effects of Lactulose combined with Celecoxib or Ibuprofen on Freund's complete adjuvant-induced hind paw inflammation in mice, with the results shown in FIGS. 12-15.
For induction of hindpaw inflammation, mice (BALB/c; 8 w old male n=6/group) received i.pl. injection of 25 μl of complete Freund's adjuvant (CFA, diluted 1:1 with PBS, 2 mg/ml; Mycobacterium tuberculosis; Difco Laboratories, Detroit, Mich.). Lactulose (10% water) or control water alone was administered once in a day for 7 days (500 μl/day) by oral gavage using a 20-G bulb-tipped gastric gavage needle (P.O.). Celecoxib (Toronto Research Chemicals) and Ibuprofen (Enzo Life Sciences) dissolved in PBS was applied to mice once a day via intra-peritoneal (i.p.) injection (10 mg/kg/day, respectively) for 7 days. The thickness of the foot pad was measured using a digital microcaliper as mice were sacrificed on 7 day. Surgically removed hind paw tissue was homogenized in EIA-Buffer (Cayman) and subjected to mouse NGF ELISA (Millipore), PGE2 EIA (Cayman), or TNF-α ELISA (R&D systems).

[4] = H2 concentration in ascites fluid after ingestion (Example 2); assay type: in vivo, mouse; settings: for H2 concentration in ascites fluid after ingestion of sugar solution: mouse abdominal cavity, ranking among sugars tested
Description: Lactose, glucose, galactose, fructose, mannitol, inulin, Splenda® (McNeil Nutritionals (sucralose)), Equal® (Merisant (aspartame, dextrose, and maltodextrin)), and lactulose were tested along with a control.
After 30 minutes, H2-enriched water provided approximately 40 μM H2 concentration but dropped off to approximately 15 μM after 4 hours. At 4 hours, lactulose provided over 20 μM H2 concentration.

[5] = tested on: mouse macrophage cell line (RAW264.7); test: TNF-α production from LPS-stimulated mouse macrophages (Example 3); assay type: cell-based; settings: LPS-stimulated RAW264.7, 24 hours, ELISA; drug 10-1000 nM, with or without H2
Description: The following is an in vitro experiment to test the effects of hydrogen on the Celecoxib- or Ibuprofen-mediated anti-inflammatory activities, and the results are shown in FIGS. 10 and 11.
The mouse macrophage cell line (RAW264.7) was seeded at a density of 1.0×10^5 cells/well in 96-well culture plates in Minimum Essential Medium Alpha ( ? -MEM, Sigma) supplemented with penicillin G solution (100 U/ml, GIBCO; Invitrogen, Buffalo, N.Y.), streptomycin ([…], GIBCO; Invitrogen), and gentamicin (50 ? g/ml, GIBCO; Invitrogen) containing 10% FBS in the presence or absence of H2 (300 nM/ml) for 30 min. Then the cells were exposed to LPS (0.1 mg/ml, Invivogen, San Diego, Calif.), with or without a variety of concentrations of Celecoxib or Ibuprofen (10-1000 nM). After culture of the RAW264.7 cells for 24 hours in a CO2 incubator (37° C.), the culture supernatant was harvested and subjected to TNF-α ELISA (R&D Systems).

CCC(C)C(CN)CC(=O)O (stereo not drawn) [s-C4H9]
Effect # Protected/# Tested ([1]; 3 mg/kg): 2/10 | Ataxia # Ataxia/# Tested ([1]; 3 mg/kg): 0/10 | Effect # Protected/# Tested ([1]; 10 mg/kg): 3/10 | Ataxia # Ataxia/# Tested ([1]; 10 mg/kg): 0/10 | Effect # Protected/# Tested ([1]; 30 mg/kg): 2/10 | Ataxia # Ataxia/# Tested ([1]; 30 mg/kg): 0/10

C[C@H](N)CCC(=O)O [H(S)]
Activation of GAD by GABA analogs expressed in % (GAD; 0.25 mM): 100% | Activation of GAD by GABA analogs expressed in % (GAD; 1.0 mM): 100% | Activation of GAD by GABA analogs expressed in % (GAD; 2.5 mM): 100%

CC(C)C[C@H](CN)CC(=O)O [LYRICA®, (S)-(+)-4-amino-3-(2-methylpropyl)butanoic acid]
IL-1β in tissue (level of inflammation) ([2]; CFA-injected mice): slightly reduced levels of inflammation compared to placebo group 2 | Substance P (pain marker) in tissue ([2]; CFA-injected mice): reduction in the marker compared to the placebo group 2

CC(C)(C)C(CN)CC(=O)O (stereo not drawn) [t-C4H9]
Effect # Protected/# Tested ([1]; 10 mg/kg): 2/10 | Ataxia # Ataxia/# Tested ([1]; 10 mg/kg): 0/10 | Effect # Protected/# Tested ([1]; 30 mg/kg): 2/10 | Ataxia # Ataxia/# Tested ([1]; 30 mg/kg): 0/10 | Effect # Protected/# Tested ([1]; 100 mg/kg): 5/10 | Ataxia # Ataxia/# Tested ([1]; 100 mg/kg): 0/10

C[C@@H](N)CCC(=O)O [H(R)]
Activation of GAD by GABA analogs expressed in % (GAD; 0.25 mM): 108% | Activation of GAD by GABA analogs expressed in % (GAD; 1.0 mM): 125% | Activation of GAD by GABA analogs expressed in % (GAD; 2.5 mM): 173%

CC(C)(CN)CC(=O)O [(CH3)2]
Effect # Protected/# Tested ([1]; 30 mg/kg): 4/5 | Ataxia # Ataxia/# Tested ([1]; 30 mg/kg): 0/5 | Effect # Protected/# Tested ([1]; 100 mg/kg): 4/5 | Ataxia # Ataxia/# Tested ([1]; 100 mg/kg): 0/5

OC[C@H]1O[C@@H](O[C@@H]2[C@@H](CO)OC(O)(CO)[C@H]2O)[C@H](O)[C@@H](O)[C@H]1O (mixture of isomers) [Lactulose, lactulose]
H2 concentration in the abdomen ([2]; day 8, CFA-injected mice): highest | foot pad swelling ([3]; lactulose 10% P.O. 500 μl/day, drug 10 mg/kg/day i.p.): reduced | NGF in inflamed foot pads [3]: reduced | amount of PGE2 in inflamed foot pads [3]: reduced | amount of TNF-α in inflamed foot pads [3]: greatly reduced | H2 concentration in ascites fluid ([4]; after 4 hours): over 20 μM | H2 concentration in ascites fluid after ingestion of sugar solution [4]: highest concentration of H2 in ascites fluid

CC(C)Cc1ccc(C(C)C(=O)O)cc1 (racemic) [ibuprofen, (RS)-2-(4-(2-methylpropyl)phenyl)propanoic acid]
TNF-α production [5]: TNF-α suppression

CCCC(CCC)C(=O)[O-].[Na+] [Sodium Valproate]
Activation of GAD by GABA analogs expressed in % (GAD; 0.05 mM): 105% | Activation of GAD by GABA analogs expressed in % (GAD; 0.1 mM): 115% | Activation of GAD by GABA analogs expressed in % (GAD; 0.25 mM): 119% | Activation of GAD by glutamate analogs expressed in % (GAD; 0.25 mM): 119% | Activation of GAD by GABA analogs expressed in % (GAD; 0.5 mM): 124% | Activation of GAD by GABA analogs expressed in % (GAD; 1.0 mM): 138% | Activation of GAD by glutamate analogs expressed in % (GAD; 1.0 mM): 138% | Activation of GAD by GABA analogs expressed in % (GAD; 2.5 mM): 207% | Activation of GAD by glutamate analogs expressed in % (GAD; 2.5 mM): 207%

inulin
H2 concentration in ascites fluid after ingestion of sugar solution [4]: next highest concentration

CC(N)CCC(=O)O (racemic) [H(R,S)]
Activation of GAD by GABA analogs expressed in % (GAD; 0.25 mM): 104% | Activation of GAD by GABA analogs expressed in % (GAD; 1.0 mM): 111% | Activation of GAD by GABA analogs expressed in % (GAD; 2.5 mM): 140%

CC(CN)CC(=O)O (racemic) [(R,S)—CH3]
Effect # Protected/# Tested ([1]; 10 mg/kg): 0/5 | Ataxia # Ataxia/# Tested ([1]; 10 mg/kg): 0/5 | Effect # Protected/# Tested ([1]; 30 mg/kg): 4/5 | Ataxia # Ataxia/# Tested ([1]; 30 mg/kg): 0/5 | Effect # Protected/# Tested ([1]; 100 mg/kg): 3/5 | Ataxia # Ataxia/# Tested ([1]; 100 mg/kg): 0/5

CC(C)(C)CC(CN)CC(=O)O (stereo not drawn) [neo-C5H11]
Effect # Protected/# Tested ([1]; 10 mg/kg): 2/10 | Ataxia # Ataxia/# Tested ([1]; 10 mg/kg): 0/10 | Effect # Protected/# Tested ([1]; 30 mg/kg): 4/10 | Ataxia # Ataxia/# Tested ([1]; 30 mg/kg): 0/10 | Effect # Protected/# Tested ([1]; 100 mg/kg): 4/10 | Ataxia # Ataxia/# Tested ([1]; 100 mg/kg): 0/10

CC(C)CC(CN)CC(=O)O (racemic) [(R,S)—i-C4H9, H, 4-amino-3-(2-methylpropyl)butanoic acid]
activating GAD in vitro (GAD; compared with the other analogs tested): least effective one of the analogs tested | potency when tested in vivo ([1]; compared with the other analogs): more potent than the other analogs

CC(C)CC(CN)CC(=O)O (stereo not drawn) [i-C4H9, 4-amino-3-(2-methylpropyl)butanoic acid]
Effect # Protected/# Tested ([1]; 0.3 mg/kg): 1/10 | Effect # Protected/# Tested ([1]; 0.8 mg/kg): 3/10 | Effect # Protected/# Tested ([1]; 2.0 mg/kg): 5/10 | Effect # Protected/# Tested ([1]; 5.5 mg/kg): 7/10

NCC1(CC(=O)O)CCCCC1 [GABAPENTIN, gabapentin]
Activation of GAD by GABA analogs expressed in % (GAD; 0.25 mM): 105% | Activation of GAD by GABA analogs expressed in % (GAD; 1.0 mM): 145% | Activation of GAD by GABA analogs expressed in % (GAD; 2.5 mM): 178%
